{"source": "patent US20070111199A1", "about": "“Compounds and method of identifying, synthesizing, optimizing and profiling protein modulators” (priority 2005, published 2007)", "data": [{"test_system": "P210 T315I mutant kinase domain (120 Kd)", "test": "cell-free purified protein kinase autophosphorylation assay, T315I kinase domain", "assay_type": "biochemical, human", "conditions": "20 μM cell-free, FIGS. 17 and 18", "procedure": "Each of the compounds was also tested in a standard cell free protein kinase autophosphorylation assay at a concentration of 20 μM as shown in FIG. 18.", "values": [{"smiles": "O=C(Nc1cccc(C(F)(F)F)c1)c1cccc(/C=N/Nc2ncc(F)c(N3CCOCC3)n2)n1", "note": "[Example C2-122]", "relative potency, cell-free assay vs phenoresponse-based cellular assay": "more potent in the cell-free assay than in the phenoresponse-based cellular system"}]}, {"target": "T1, Ba/F3 cells overexpressing the p210^Bcr-Abl-T315I theramutein (Homo sapiens, UniProt P00519, T315I, cells depend on it)", "T1 construct": "fused on or other part: P11274 (Breakpoint cluster region protein)", "test": "phenoresponse-based cellular assay (cell count/viability), Ba/F3 T315I test cells", "parameters": "species or system murine", "conditions": "FIG. 17", "values": [{"smiles": "O=C(Nc1cccc(C(F)(F)F)c1)c1cccc(/C=N/Nc2ncc(F)c(N3CCOCC3)n2)n1", "note": "[Example C2-122]", "relative potency in the phenoresponse-based assay": "less potent than several of the other compounds tested"}]}, {"target": "T1, Ba/F3 cells overexpressing the p210^Bcr-Abl-T315I theramutein", "test": "phenoresponse-based cellular assay (cell count/viability), Ba/F3 T315I test cells", "parameters": "species or system murine", "conditions": "T315I vs control Ba/F3 cells, FIG. 1", "units": {"concentration showing the largest specificity gap within the dose-response series": "nM"}, "values": [{"smiles": "Oc1c(Cl)cc(Br)cc1/C=N\\Nc1ncc(F)c(N2CCOCC2)n1", "note": "[Example C2]", "concentration showing the largest specificity gap within the dose-response series": 500}]}, {"target": "T1, Ba/F3 cells overexpressing the p210^Bcr-Abl-T315I theramutein", "test": "phenoresponse-based cellular assay (cell count/viability), Ba/F3 T315I test cells", "parameters": "species or system murine", "conditions": "read-out: T315I (IC50 activity category, growth inhibition by 50%); Ba/F3 T315I cell line", "units": {"GI50": "nM"}, "values": [{"smiles": "O=C(Nc1cccc(C(F)(F)F)c1)c1cc(Cl)c(O)c(/C=N\\Nc2ncc(F)c(N3CCOCC3)n2)c1", "GI50": "< 1000"}, {"smiles": "Fc1cnc(N/N=C/c2ccccc2)nc1N1CCOCC1", "GI50": "> 10000"}, {"smiles": "Fc1cnc(N/N=C/c2ccc(Nc3cccc(C(F)(F)F)c3)cn2)nc1-c1cncc(-c2ccccc2)c1", "GI50": "< 1000"}, {"smiles": "Fc1cnc(N/N=C/c2ccc(Nc3cccc(-n4ccnc4)c3)cn2)nc1N1CCOCC1", "GI50": "< 1000"}, {"smiles": "Cc1cc(Nc2cccc(C(F)(F)F)c2)ccc1/C=N/Nc1ncc(F)c(N2CCOCC2)n1", "GI50": "> 10000"}, {"smiles": "O=C(Nc1cccc(C(F)(F)F)c1)c1cccc(/C=N/Nc2ncc(F)c(N3CCOCC3)n2)n1", "note": "[drawing 209]", "GI50": "> 10000"}, {"smiles": "CC(C(=O)O)c1ccc(Nc2ccc(/C=N/Nc3ncc(F)c(N4CCOCC4)n3)nc2)cc1", "note": "(stereo not shown)", "GI50": "> 10000"}, {"smiles": "Cc1ccc(/C=N/Nc2ncc(F)c(N3CCOCC3)n2)cc1", "GI50": "> 10000"}, {"smiles": "Fc1cnc(N/N=C/c2ccc(-c3cccc(C(F)(F)F)c3)cn2)nc1N1CCOCC1", "GI50": "< 1000"}, {"smiles": "O=C(NNc1ncc(F)c(N2CCOCC2)n1)c1ccc(Nc2cccc(C(F)(F)F)c2)cn1", "GI50": "< 1000"}, {"smiles": "Fc1cnc(N/N=C/c2ccc(Nc3cccc(C(F)(F)F)c3)cn2)nc1-c1cncc(C2CC2)c1", "GI50": "< 10000"}, {"smiles": "Fc1cnc(N/N=C/c2ccc(Nc3ccc(-c4ccccn4)c(Cl)c3)cn2)nc1N1CCOCC1", "GI50": "< 1000"}, {"smiles": "O=C(Nc1cccc(C(F)(F)F)c1)c1ccc(/C=N/Nc2ncc(F)c(N3CCOCC3)n2)nc1", "GI50": "< 1000"}, {"smiles": "CN(C)c1cc(O)cc(Nc2ccc(/C=N/Nc3ncc(F)c(N4CCOCC4)n3)nc2)c1", "GI50": "< 1000"}, {"smiles": "Oc1ccc(Br)cc1/C=N/Nc1ncc(F)c(N2CCOCC2)n1", "GI50": "< 1000"}, {"smiles": "Fc1cnc(N/N=C/c2ccccn2)nc1N1CCOCC1", "GI50": "< 1000"}, {"smiles": "Cc1cc(Nc2ccc(/C=N/Nc3ncc(F)c(N4CCOCC4)n3)nc2)cc(N2CCNCC2)c1", "GI50": "< 1000"}, {"smiles": "Oc1ccccc1/C=N/Nc1ncc(F)c(N2CCOCC2)n1", "GI50": "< 10000"}, {"smiles": "Fc1cnc(N/N=C/c2ccc(Nc3ccc(N4CCOCC4)cc3)cn2)nc1N1CCOCC1", "GI50": "< 1000"}, {"smiles": "Oc1cccc(Nc2cccc(Nc3ccc(/C=N/Nc4ncc(F)c(N5CCOCC5)n4)nc3)c2)c1", "GI50": "< 1000"}, {"smiles": "Cc1ccccc1/C=N/Nc1ncc(F)c(N2CCOCC2)n1", "GI50": "> 10000"}, {"smiles": "Cc1cccc(Cl)c1NC(=O)C/C=N/Nc1ncc(F)c(N2CCOCC2)n1", "GI50": "> 10000"}]}]}
